What all share (experiment): Broth dilution growth inhibition (OD600)
Common to all, as to format: cell-based

For experiment [1], the system named is Bacillus subtilis ATCC6633. As to conditions: TSB, mean ± SD, triplicate; for Inhibitory percentage, Bacillus subtilis: 100 µg/mL. The procedure:
(§1) Three human pathogenic bacteria were selected for investigation, namely Bacillus subtilis ATCC6633, Pseudomonas aeruginosa ATCC28753, and Burkholderia cepacia ATCC25416.
(§2) In evaluating antibacterial activity by the broth dilution assay, human pathogenic bacteria were first prepared in tryptic soy agar (TSA) (Difco BBL, Sparks, MD, USA) for 24 h at 28 °C. Then, a single colony was cultured in tryptic soy broth (TSB) (Difco BBL, Sparks, MD, USA) for 12–16 h to reach an inoculum of 0.05 at OD600. The antibacterial activity of lower than 3 kDa protein hydrolysates/peptides was then determined against the pathogens in triplicate using 96-well microplates, with bacteria in TSB, phosphate-buffered saline (PBS), and antibiotic treatment (ampicillin and kanamycin) used as controls. The final concentration of antibiotics and protein hydrolysates/peptides was 100 µg/mL. After incubation for 0, 2, 4, and 6 h, the OD600 was documented using a microplate reader (Synergy H1 Hybrid Multi-Mode Reader, Biotek, Winusky, VT, USA).
(§3) A completely randomized design was used: protein hydrolysates/peptides from six agricultural wastes, seven agro-industrial wastes, and two fishery wastes as treatments; and human pathogenic bacteria P. aeruginosa ATCC28753, Bacillus subtilis ATCC6633, and Burkholderia cepacia ATCC25416 grown in tryptic soy broth (TSB) (Difco BBL, Sparks, MD, USA) at 28 °C in 96-well plates as experimental units. Experiments were conducted in triplicate and all the results shown in this study are presented as mean ± standard deviation (SD).

Experiment [2] has as its system Burkholderia cepacia ATCC25416. The settings on record: TSB, mean ± SD, triplicate; for Inhibitory percentage, Burkholderia cepacia: 100 µg/mL. As to the method: as §1, §2, §3
The test system of experiment [3] is Pseudomonas aeruginosa ATCC28753. As to conditions: TSB, mean ± SD, triplicate; for Inhibitory percentage, P. aeruginosa: synthetic peptides. The procedure:
as §1, §2, §3

Where [4] appears, read: lower than 3 kDa hydrolysates and antibiotics, 6 h after treatment, 96-well.

`CC1(C)S[C@@H]2[C@H](NC(=O)[C@H](N)c3ccccc3)C(=O)N2[C@H]1C(=O)O` [ampicillin, reference compound]: the inhibition at 100 µg/mL in experiment [1] (Bacillus subtilis, ATCC6633, lower than 3 kDa hydrolysates and antibiotics, 6 h after treatment, 96-well, read-out: Inhibitory percentage, Bacillus subtilis) worked out at 85.2 ± 10.6%; in experiment [2] (Burkholderia cepacia, ATCC25416, lower than 3 kDa hydrolysates and antibiotics, 6 h after treatment, 96-well, read-out: Inhibitory percentage, Burkholderia cepacia), 32.8 ± 4.18%; in experiment [3] (Pseudomonas aeruginosa, ATCC28753, lower than 3 kDa hydrolysates and antibiotics, 6 h after treatment, 96-well, read-out: Inhibitory percentage, Pseudomonas aeruginosa), 32 ± 1.59%.

For the compound `NC[C@H]1O[C@H](O[C@H]2[C@H](O)[C@@H](O[C@H]3O[C@H](CO)[C@@H](O)[C@H](N)[C@H]3O)[C@H](N)C[C@@H]2N)[C@H](O)[C@@H](O)[C@@H]1O` [kanamycin, reference compound], the “Inhibitory percentage, Bacillus subtilis” value in experiment [1] (setting [4]) is recorded as 77.60 ± 0.85%. Further, in experiment [2] (setting [4]), the “Inhibitory percentage, Burkholderia cepacia” value is 87.02 ± 0.42%. Besides, the “Inhibitory percentage, Pseudomonas aeruginosa” value in experiment [3] (lower than 3 kDa hydrolysates and antibiotics, 100 µg/mL, 6 h after treatment, 96-well) is recorded as 39.00 ± 2.81%.

For “NLWSNEINQDMAEF [Peptide no.3, Asn-Leu-Trp-Ser-Asn-Glu-Ile-Asn-Gln-Asp-Met-Ala-Glu-Phe, synthetic peptide from bagasse (AW6) hydrolysate; LRR receptor-like serine/threonine-protein kinase GSO2 fragment]”, the “Inhibitory percentage, Bacillus subtilis” value in experiment [1] (synthetic peptides) was found to be 11.33 ± 0.29. Further, the “Inhibitory percentage, Burkholderia cepacia” value in experiment [2] (synthetic peptides) amounted to 23.32 ± 0.68. Moreover, in experiment [3] (100 µg/mL), the “Inhibitory percentage, P. aeruginosa” value is 24.87 ± 0.81.

As for “GAFHVTGL [compound 1, synthetic peptide from bagasse (AW6) hydrolysate; Photosystem II CP47 reaction center protein fragment]”, the “Inhibitory percentage, Bacillus subtilis” value in experiment [1] (synthetic peptides) stood at 3.82 ± 0.09. Also, the “Inhibitory percentage, Burkholderia cepacia” value in experiment [2] (synthetic peptides) stood at 9.09 ± 0.04. Moreover, the “Inhibitory percentage, P. aeruginosa” value in experiment [3] (100 µg/mL) was 21.74 ± 0.96.

As for “VSNCL [Peptide no.4, Val-Ser-Asn-Cys-Leu, synthetic peptide from bagasse (AW6) hydrolysate; 3-ketoacyl-CoA synthase fragment]”, the “Inhibitory percentage, Bacillus subtilis” value in experiment [1] (synthetic peptides) is 10.39 ± 0.33. In addition, the “Inhibitory percentage, Burkholderia cepacia” value in experiment [2] (synthetic peptides) stood at 20.56 ± 0.28. Further, the “Inhibitory percentage, P. aeruginosa” value in experiment [3] (100 µg/mL) stood at 24.70 ± 0.81.

As to “VLSSWGDESTL [compound 2, synthetic peptide from bagasse (AW6) hydrolysate; RNA helicase fragment]”, in experiment [1] (synthetic peptides), the “Inhibitory percentage, Bacillus subtilis” value is on record as 4.45 ± 0.03. The “Inhibitory percentage, Burkholderia cepacia” value in experiment [2] (synthetic peptides) stood at 14.92 ± 0.72. Besides, the “Inhibitory percentage, P. aeruginosa” value in experiment [3] (100 µg/mL) is on record as 23.61 ± 0.12.

Consider “WDTDNLSPDAVAAIKAAHPNVAVMAGL [compound 5, synthetic peptide from bagasse (AW6) hydrolysate; Chitinase fragment]”, for which the “Inhibitory percentage, Bacillus subtilis” value in experiment [1] (synthetic peptides) is recorded as 5.97 ± 0.06. For the same compound, the “Inhibitory percentage, Burkholderia cepacia” value in experiment [2] (synthetic peptides) is given as 20.51 ± 0.48. Further, the “Inhibitory percentage, P. aeruginosa” value in experiment [3] (100 µg/mL) stood at 30.34 ± 0.95.

For the origin of these results see paper PMC10044114, “Mechanisms of Antimicrobial Peptides from Bagasse against Human Pathogenic Bacteria” (Antibiotics, 2023).
